Test results published in patent publication US20080109040A1, “METHOD OF TREATING ARRHYTHMIAS” (priority 2002, published 2008).
“Also recorded” adds a separate entry of the source.

Legend:
[1] = system: guinea pig ventricular myocytes; assay: Action potential duration, EADs and triggered activity in guinea pig ventricular myocytes; conditions: for Reduction of ATX-II-induced prolongation of APD50: ATX-II 10-20 nmol/L; for Attenuation of ATXII-induced prolongation of APD50: ATXII 10-40 nmol/L
Protocol: Single ventricular myocytes were isolated from the hearts of adult, male guinea pigs (Harlan). In brief, the hearts were perfused with warm (35° C.) and oxygenated solutions in the following order: 1) Tyrode solution containing (in mmol/L) 140 NaCl, 4.6 KCl, 1.8 CaCl2, 1.1 MgSO4, 10 glucose and 5 HEPES, pH 7.4, for 5 minutes; 2) Ca^2+-free solution containing (in mmol/L) 100 NaCl, 30 KCl, 2 MgSO4, 10 glucose, 5 HEPES, 20 taurine, and 5 pyruvate, pH 7.4, for 5 minutes; and 3) Ca^2+-free solution containing sollagenase (120 units/ml) and albumin (2 mg/ml), for 20 minutes. At the end of the perfusion, the ventricles were removed, minced, and gently shaken for 10 minutes in solution #3. Isolated cells were harvested from the cell suspension.
Myocytes were placed into a recording chamber and superfused with Tyrode solution at 35° C. Drugs were applied via the superfusate. Action potentials were measured using glass microelectrodes filled with a solution containing (in mmol/L) 120 K-aspartate, 20 KCl, 1 MgCl2, 4 Na2ATP, 0.1 Na3GTP, 10 glucose, 1 EGTA and 10 HEPES (pH 7.2). Microelectrode resistance was 1-3 MΩ. An Axopatch-200 amplifier, a DigiData-1200A interface and pCLAMP6 software were used to perform electrophysiological measurements. Action potentials were induced by 5-ms depolarizing pulses applied at various frequencies as indicated. The duration of action potential was measured at 50% (APD50) and 90% (APD90) repolarization.
1) Ventricular myocytes were electrically stimulated at a frequency of 0.5, 1 or 2 Hz. Each myocyte was treated with 3, 10 and 30 μmol/L ranolazine. The effect of ranolazine on action potential duration at each pacing frequency was determined from 4 myocytes.
2) Action potentials were elicited at a frequency of 0.25 Hz, and the effect of ranolazine (10 μmol/L) on action potential duration was examined in the presence of 5 μmol/L quinidine. Experiments were performed on 4 myocytes.
Following the procedures and protocols of Example 21, guinea pig ventricular myocytes were electrically stimulated in the presence of ranolazine either alone or in the presence of ATX II [a sea anemone toxin known to mimic LQT3 syndrome by slowing Na^+-channel inactivation from the open state and thereby increasing the peak and late Na^+ current (INa) of cardiomyocytes]. ATXII is known to induce early afterdepolarizations (EADs) and triggered activity and ventricular tachycardia.
Action potentials were recorded using the whole-cell patch-electrode technique. Ventricular monophasic action potentials and electrograms were recorded from isolated hearts.
The ventricular APD of guinea pigs isolated myocytes and hearts was measured, respectively, at 50% (APD50) and 90% (MAPD90) repolarization.

anesthetized dog = assay: QT prolongation and arrhythmia induction in anesthetized dog with AV block and phenylephrine challenge
Protocol: Dogs were pretreated with Atravet (0.07 mg/kg sc) and then 15 minutes later anesthetized with ketamine (5.3 mg/kg iv) and valium (0.25 mg/kg iv) followed by isoflurane (1-2%), intubated and subjected to mechanical ventilation. They were then subjected to AV block with radiofrequency ablation. A median sternotomy was performed and catheters were inserted into a femoral artery for blood pressure (BP) recording and into both femoral veins for infusion of test drugs. Bipolar electrodes were inserted into both ventricles for programmed stimulation determination of refractory periods (extrastimulus technique), as well as for evaluation of QT interval and QRS duration at various controlled basic cycle lengths (BCLs). TdP was induced by challenges of phenylephrine, which were given as bolus intravenous doses of 10, 20, 30, 40 and 50 μg/kg. After each dose, the ECG was monitored continuously to detect arrhythmias. […] Test drug effects were evaluated as per protocols below.
Data are presented as the mean ±S.E.M. Statistical comparisons were made with Student's t test. A 2-tailed probability<0.05 was taken to indicate statistical significance. In data tables, * denotes P<0.05, **P<0.01.
Group 2 (6 dogs): Five dogs received ranolazine as a 0.5 mg/kg iv load followed by a first, a second and a third continuous iv infusion of 1.0, 3.0 and 15 mg/kg/hr, respectively. One dog received ranolazine as a 1.5 mg/kg iv load followed by infusions of 15 and 30 mg/kg/hr. […] The phenylephrine challenges were then given, with all doses given at each drug infusion rate, and any arrhythmias monitor.

late INa = late INa (Canis lupus familiaris, UniProt Q865W3); assay: Late INa, perforated patch voltage clamp in isolated canine left ventricular myocytes; type: cell-based; conditions: 500 ms pulses to −30 mV at 1 Hz, read-out: Half-inhibition of late INa
[2] = ranolazine 10 μmol/L, ATX-II plus either E-4031 or 293B
[3] = ranolazine 0.5 mg/kg iv load + 1.0 mg/kg/hr, BCL 300
[4] = ranolazine 0.5 mg/kg iv load + 1.0 mg/kg/hr, BCL 400
[5] = ranolazine 0.5 mg/kg iv load + 1.0 mg/kg/hr, BCL 600
[6] = ranolazine 3.0 mg/kg/hr, BCL 300
[7] = ranolazine 3.0 mg/kg/hr, BCL 400
[8] = ranolazine 3.0 mg/kg/hr, BCL 600
[9] = ranolazine 3.0 mg/kg/hr, BCL 1000
[10] = ranolazine 15 mg/kg/hr, BCL 400
[11] = ranolazine 15 mg/kg/hr, BCL 600
[12] = ranolazine 15 mg/kg/hr, BCL 1000

late INa, sequence (Q865W3 1-2013): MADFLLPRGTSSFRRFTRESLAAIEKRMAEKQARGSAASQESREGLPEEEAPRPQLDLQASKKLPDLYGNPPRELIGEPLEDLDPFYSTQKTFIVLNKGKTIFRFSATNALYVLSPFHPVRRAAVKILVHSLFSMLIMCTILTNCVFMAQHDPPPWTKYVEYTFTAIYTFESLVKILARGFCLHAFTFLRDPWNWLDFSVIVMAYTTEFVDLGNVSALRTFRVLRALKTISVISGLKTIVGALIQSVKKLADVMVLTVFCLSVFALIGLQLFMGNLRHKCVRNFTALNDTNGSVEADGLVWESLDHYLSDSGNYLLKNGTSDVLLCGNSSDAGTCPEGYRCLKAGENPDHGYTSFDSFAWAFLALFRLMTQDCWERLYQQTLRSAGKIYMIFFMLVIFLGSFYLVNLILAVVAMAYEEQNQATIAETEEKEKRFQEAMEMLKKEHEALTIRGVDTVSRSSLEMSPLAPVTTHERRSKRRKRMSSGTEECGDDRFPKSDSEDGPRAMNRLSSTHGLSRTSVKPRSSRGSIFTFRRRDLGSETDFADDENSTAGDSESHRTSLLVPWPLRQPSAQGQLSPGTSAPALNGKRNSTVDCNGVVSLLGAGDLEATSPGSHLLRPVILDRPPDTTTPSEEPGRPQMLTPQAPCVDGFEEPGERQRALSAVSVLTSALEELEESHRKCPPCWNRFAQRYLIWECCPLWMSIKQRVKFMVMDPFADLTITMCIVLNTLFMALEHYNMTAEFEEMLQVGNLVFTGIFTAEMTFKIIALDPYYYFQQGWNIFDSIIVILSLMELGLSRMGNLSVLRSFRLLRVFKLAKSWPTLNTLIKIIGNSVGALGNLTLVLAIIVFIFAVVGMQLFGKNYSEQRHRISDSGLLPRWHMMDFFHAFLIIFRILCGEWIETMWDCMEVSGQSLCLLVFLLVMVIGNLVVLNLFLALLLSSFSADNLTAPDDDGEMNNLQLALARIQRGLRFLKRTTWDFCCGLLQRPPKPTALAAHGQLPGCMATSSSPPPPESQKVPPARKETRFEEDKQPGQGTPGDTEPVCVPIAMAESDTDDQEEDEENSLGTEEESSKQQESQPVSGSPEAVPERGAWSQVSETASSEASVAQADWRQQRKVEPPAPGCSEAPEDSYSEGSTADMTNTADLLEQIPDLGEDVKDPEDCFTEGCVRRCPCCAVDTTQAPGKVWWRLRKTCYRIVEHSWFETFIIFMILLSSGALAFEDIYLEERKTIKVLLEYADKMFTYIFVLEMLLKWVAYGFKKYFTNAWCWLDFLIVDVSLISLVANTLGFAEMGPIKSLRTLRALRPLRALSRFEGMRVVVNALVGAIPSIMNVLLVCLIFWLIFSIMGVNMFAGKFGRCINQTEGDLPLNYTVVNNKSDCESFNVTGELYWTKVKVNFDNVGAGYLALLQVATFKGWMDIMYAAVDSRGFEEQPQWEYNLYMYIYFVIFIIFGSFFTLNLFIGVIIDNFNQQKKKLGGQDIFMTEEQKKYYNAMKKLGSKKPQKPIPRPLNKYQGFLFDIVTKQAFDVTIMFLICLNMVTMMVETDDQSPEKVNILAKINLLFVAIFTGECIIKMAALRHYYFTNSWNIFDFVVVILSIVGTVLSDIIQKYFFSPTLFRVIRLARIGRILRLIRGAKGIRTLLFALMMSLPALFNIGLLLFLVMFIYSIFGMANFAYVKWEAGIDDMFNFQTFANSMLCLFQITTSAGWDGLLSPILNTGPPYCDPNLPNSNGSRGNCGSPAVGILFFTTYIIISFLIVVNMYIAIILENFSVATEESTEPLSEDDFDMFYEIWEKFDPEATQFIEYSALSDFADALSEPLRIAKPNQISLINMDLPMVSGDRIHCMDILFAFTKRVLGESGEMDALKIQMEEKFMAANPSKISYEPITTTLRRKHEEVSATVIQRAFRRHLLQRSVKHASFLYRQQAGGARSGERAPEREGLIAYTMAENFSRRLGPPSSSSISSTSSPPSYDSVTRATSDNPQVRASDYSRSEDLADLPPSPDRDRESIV

Compound: COc1ccccc1OCC(O)CN1CCN(CC(=O)Nc2c(C)cccc2C)CC1 (racemic) [ranolazine, N-(2,6-dimethylphenyl)-4-[2-hydroxy-3-(2-methoxyphenoxy)propyl]-1-piperazineacetamide]
- Reduction of ATX-II-induced prolongation of APD50 ([1]; ranolazine 0.1 μmol/L): 29±1%
- Reduction of ATX-II-induced prolongation of APD50 ([1]; ranolazine 0.3 μmol/L): 47±1%
- Reduction of ATX-II-induced prolongation of APD50 ([1]; ranolazine 1 μmol/L): 63±3%
- Attenuation of ATXII-induced prolongation of APD50 ([1]; ranolazine 1 μmol/L): 60±4%
- Reduction of ATX-II-induced prolongation of APD50 ([1]; ranolazine 3 μmol/L): 79±1%
- Attenuation of ATXII-induced prolongation of APD50 ([1]; ranolazine 3 μmol/L): 80±2%
- Reduction of ATX-II-induced prolongation of APD50 ([1]; ranolazine 10 μmol/L): 86±2%
- Effect on EADs [1, 2]: completely abolished the EADs
- Reversal of the prolongation of APD50 [1, 2]: about 70%
- Attenuation of ATXII-induced prolongation of APD50 ([1]; ranolazine 10 μmol/L): 86±2%
- Suppression of quinidine-induced EADs and triggered activity ([1]; ranolazine 10 μmol/L, quinidine 2.5 μmol/L): effective in suppressing EADs; also recorded: effective in suppressing triggered activity; also recorded: suppressed EADs and TA
- Effect on quinidine-induced action potential prolongation ([1]; ranolazine 10 μmol/L, quinidine 5 μmol/L, 0.25 Hz): attenuated the effect of quinidine
- Reduction of ATX-II-induced prolongation of APD50 ([1]; ranolazine 30 μmol/L): 99±1%
- Attenuation of ATXII-induced prolongation of APD50 ([1]; ranolazine 30 μmol/L): 99±1%
- Effect on APD50 and APD90 ([1]; ranolazine 3, 10, 30 μmol/L, 0.5, 1, 2 Hz): moderate and concentration-dependent shortening
- Induction of torsades de pointes and/or ventricular fibrillation (anesthetized dog; dog, in vivo): unable to induce any
- Maximum increase of QT interval (anesthetized dog; dog, in vivo, 3 mg/kg, 30 min): about 10%
- Arrhythmia occurrence (anesthetized dog; dog, in vivo, 30 min): VT 13 beats,
- Mean ERP-LV + SE (anesthetized dog; [3]): 185.00 ± 8.1 ms
- Mean ERP-RV + SE (anesthetized dog; [3]): 182.84 ± 6.67 ms
- Mean ERP-LV + SE (anesthetized dog; [4]): 204.38 ± 11.01 ms
- Mean ERP-RV + SE (anesthetized dog; [4]): 201.50 ± 6.45 ms
- Mean ERP-LV + SE (anesthetized dog; [5]): 233.13 ± 12.43 ms
- Mean ERP-RV + SE (anesthetized dog; [5]): 227.50 ± 8.87 ms
- Mean ERP-LV + SE (anesthetized dog; ranolazine 0.5 mg/kg iv load + 1.0 mg/kg/hr, BCL 1000): 259.38 ± 18.18 ms
- Outcome of the high-dose dog (anesthetized dog; ranolazine 1.5 mg/kg iv load, 15 then 30 mg/kg/hr infusion): died of pump failure
- Mean ERP-LV + SE (anesthetized dog; [6]): 189.38 ± 8.32 ms
- Mean ERP-RV + SE (anesthetized dog; [6]): 181.00 ± 2.32 ms
- Mean ERP-LV + SE (anesthetized dog; [7]): 211.45 ± 9.2 ms
- Mean ERP-RV + SE (anesthetized dog; [7]): 199.66 ± 3.75 ms
- Mean ERP-LV + SE (anesthetized dog; [8]): 238.13 ± 13.25 ms
- Mean ERP-RV + SE (anesthetized dog; [8]): 224.50 ± 4.83 ms
- Mean ERP-LV + SE (anesthetized dog; [9]): 265.43 ± 19.42 ms
- Mean ERP-RV + SE (anesthetized dog; [9]): 249.50 ± 6.19 ms
- Mean ERP-RV + SE (anesthetized dog; ranolazine 15 mg/kg/hr, BCL 300): 185.00 ± 5.76 ms
- Mean ERP-LV + SE (anesthetized dog; [10]): 215.00 ± 10.05 ms
- Mean ERP-RV + SE (anesthetized dog; [10]): 206.50 ± 5.79 ms
- Mean ERP-LV + SE (anesthetized dog; [11]): 237.50 ± 14.11 ms
- Mean ERP-RV + SE (anesthetized dog; [11]): 229.50 ± 6.19 ms
- Mean ERP-LV + SE (anesthetized dog; [12]): 260.43 ± 19.32 ms
- Mean ERP-RV + SE (anesthetized dog; [12]): 253.16 ± 7.77 ms
- Mean increase of ERP (anesthetized dog; ranolazine infusions): ≤ 10%
- IC50 (late INa): 21 µM
